Measurements: patent US9724352B2, “Pyrrolo[2,1-F[1,2,4]triazine compounds, preparation methods and applications thereof” (Shanghai Institute of Materia Medica, Chinese Academy of …, priority 2012, dated 2017)

What was measured:
Assay in all cases: Proliferation of human esophagus cancer cells
Assay type in all cases: cell-based
KYSE410 = test system: KYSE410
Description: (§1) Compounds BYL719 (shown below), CYH33 (compound I-33) and I-27 were selected to test their activity on the proliferation of 11 species of human esophagus cancer cells.
(§2) The results reported in FIG. 3 were the average GI50 value and SD value of three experiments. The results were arranged according to the GI50 value of CYH33.

KYSE140 = test system: KYSE140
Description: as §1, §2

KYSE180 = test system: KYSE180
Description: as §1, §2

COLO680N = conditions: COLO-680N
Description: as §1, §2

KYSE510 = test system: KYSE510
Description: as §1, §2

KYSE450 = test system: KYSE450
Description: as §1, §2

KYSE2 = test system: KYSE2
Description: as §1, §2

KYSE70 = test system: KYSE70
Description: as §1, §2

COC(=O)Nc1cc(C(F)(F)F)c(-c2nc(N3CCOCC3)c3cc(CN4CCN(S(C)(=O)=O)CC4)cn3n2)cn1 [Compound I-33, Methyl (5-(6-((4-(methylsulfonyl)piperazin-1-yl)methyl)-4-morpholinopyrrolo[2,1-f][1,2,4]triazin-2-yl)-4-(trifluoromethyl)pyridin-2-yl)carbamate]
GI50 (KYSE410; KYSE-410, KYSE410, 1st experiment): 0.146 µM
GI50 (KYSE410; KYSE-410, KYSE410, 2nd experiment): 0.05 µM
GI50 (KYSE410; KYSE-410, KYSE410, 3rd experiment): 0.088 µM
GI50 (KYSE410; KYSE-410, KYSE410, mean of three experiments): 0.095 µM
GI50 (KYSE140; KYSE-140, KYSE140, 1st experiment): 0.484 µM
GI50 (KYSE140; KYSE-140, KYSE140, 2nd experiment): 0.804 µM
GI50 (KYSE140; KYSE-140, KYSE140, 3rd experiment): 0.492 µM
GI50 (KYSE140; KYSE-140, KYSE140, mean of three experiments): 0.593 µM
GI50 (KYSE180; KYSE-180, KYSE180, 1st experiment): 0.001 µM
GI50 (KYSE180; KYSE-180, KYSE180, 2nd experiment): 0.011 µM
GI50 (KYSE180; KYSE-180, KYSE180, 3rd experiment): 0.016 µM
GI50 (KYSE180; KYSE-180, KYSE180, mean of three experiments): 0.009 µM
GI50 (COLO680N; 1st experiment): 0.743 µM
GI50 (COLO680N; 2nd experiment): 0.53 µM
GI50 (COLO680N; 3rd experiment): 0.701 µM
GI50 (COLO680N; mean of three experiments): 0.658 µM
GI50 (KYSE510; KYSE-510, KYSE510, 1st experiment): 0.055 µM
GI50 (KYSE510; KYSE-510, KYSE510, 2nd experiment): 0.006 µM
GI50 (KYSE510; KYSE-510, KYSE510, 3rd experiment): 0.038 µM
GI50 (KYSE510; KYSE-510, KYSE510, mean of three experiments): 0.033 µM
GI50 (KYSE450; KYSE-450, KYSE450, 1st experiment): 1.38 µM
GI50 (KYSE450; KYSE-450, KYSE450, 2nd experiment): 0.803 µM
GI50 (KYSE450; KYSE-450, KYSE450, 3rd experiment): 0.938 µM
GI50 (KYSE450; KYSE-450, KYSE450, mean of three experiments): 1.04 µM
GI50 (KYSE2; KYSE2, 1st experiment): 0.024 µM
GI50 (KYSE2; KYSE2, 2nd experiment): 0.028 µM
GI50 (KYSE2; KYSE2, 3rd experiment): 0.097 µM
GI50 (KYSE2; KYSE2, mean of three experiments): 0.05 µM
GI50 (KYSE70; KYSE-70, KYSE70, 1st experiment): 0.033 µM
GI50 (KYSE70; KYSE-70, KYSE70, 2nd experiment): 0.027 µM
GI50 (KYSE70; KYSE-70, KYSE70, 3rd experiment): 0.029 µM
GI50 (KYSE70; KYSE-70, KYSE70, mean of three experiments): 0.03 µM
